# Measured values from ChEMBL document CHEMBL4304811, “Development of a Water-Soluble Indolylmaleimide Derivative IM-93 Showing Dual Inhibition of Ferroptosis and NETosis” (ACS Med Chem Lett, 2019).
# Experiments:
# [1] = biological target: Ephrin type-B receptor 6 (Homo sapiens) (UniProt O15197); experiment: Binding affinity to wild-type human partial length EPHB6 (Q634 to P948 residues) expressed in mammalian expression system assessed as residual binding level at 10 uM by Kinomescan method relative to control
# [2] = biological target: Mitogen-activated protein kinase 1 (Homo sapiens) (UniProt P28482); experiment: Binding affinity to wild-type human full length ERK2 (M1 to S360 residues) expressed in bacterial expression system assessed as residual binding level at 10 uM by Kinomescan method relative to control
# [3] = biological target: Ephrin type-B receptor 4 (Homo sapiens) (UniProt P54760); experiment: Binding affinity to wild-type human partial length EPHB4 (H585 to G892 residues) expressed in bacterial expression system assessed as residual binding level at 10 uM by Kinomescan method relative to control
# [4] = biological target: Mitogen-activated protein kinase 6 (Homo sapiens) (UniProt Q16659); experiment: Binding affinity to wild-type human partial length ERK3 (M1 to P413 residues) expressed in bacterial expression system assessed as residual binding level at 10 uM by Kinomescan method relative to control
# [5] = biological target: Hepatocyte growth factor receptor (Homo sapiens) (UniProt P08581); experiment: Binding affinity to wild-type human partial length MET (D1010 to S1367 residues) expressed in bacterial expression system assessed as residual binding level at 10 uM by Kinomescan method relative to control
# [6] = biological target: Serine/threonine-protein kinase 35 (Homo sapiens) (UniProt Q8TDR2); experiment: Binding affinity to wild-type human partial length STK35 (G182 to A534 residues) expressed in bacterial expression system assessed as residual binding level at 10 uM by Kinomescan method relative to control
# [7] = biological target: Protein kinase C theta type (Homo sapiens) (UniProt Q04759); experiment: Binding affinity to wild-type human partial length PRKCQ (L350 to S706 residues) expressed in bacterial expression system assessed as residual binding level at 10 uM by Kinomescan method relative to control
# [8] = biological target: LIM domain kinase 1 (Homo sapiens) (UniProt P53667); experiment: Binding affinity to wild-type human full length LIMK1 (M1 to D647 residues) expressed in bacterial expression system assessed as residual binding level at 10 uM by Kinomescan method relative to control
# [9] = biological target: Inhibitor of nuclear factor kappa-B kinase subunit alpha (Homo sapiens) (UniProt O15111); experiment: Binding affinity to wild-type human full length IKK-alpha (M1 to E745 residues) expressed in mammalian expression system assessed as residual binding level at 10 uM by Kinomescan method relative to control
# [10] = system: Phosphatidylinositol 4,5-bisphosphate 3-kinase catalytic subunit alpha isoform (Homo sapiens), P42336 [Q546K]; experiment: Binding affinity to human partial length PIK3CA Q546K mutant (R108 to N1068 residues) expressed in mammalian expression system assessed as residual binding level at 10 uM by Kinomescan method relative to control
# [11] = system: Hepatocyte growth factor receptor (Homo sapiens), P08581 [M1250T]; experiment: Binding affinity to human partial length MET M1250T mutant (D1010 to S1367 residues) expressed in bacterial expression system assessed as residual binding level at 10 uM by Kinomescan method relative to control
# [12] = biological target: Ephrin type-A receptor 6 (Homo sapiens) (UniProt Q9UF33); experiment: Binding affinity to wild-type human partial length EPHA6 (Y700 to E1046 residues) expressed in bacterial expression system assessed as residual binding level at 10 uM by Kinomescan method relative to control
# [13] = biological target: Serine/threonine-protein kinase D2 (Homo sapiens) (UniProt Q9BZL6); experiment: Binding affinity to wild-type human partial length PRKD2 (A519 to E838 residues) expressed in bacterial expression system assessed as residual binding level at 10 uM by Kinomescan method relative to control
# [14] = biological target: Serine/threonine-protein kinase Nek9 (Homo sapiens) (UniProt Q8TD19); experiment: Binding affinity to wild-type human partial length NEK9 (P32 to R328 residues) expressed in bacterial expression system assessed as residual binding level at 10 uM by Kinomescan method relative to control
# [15] = biological target: Tyrosine-protein kinase receptor TYRO3 (Homo sapiens) (UniProt Q06418); experiment: Binding affinity to wild-type human partial length TYRO3 (S497 to T814 residues) expressed in bacterial expression system assessed as residual binding level at 10 uM by Kinomescan method relative to control
# [16] = biological target: Dual specificity mitogen-activated protein kinase kinase 7 (Homo sapiens) (UniProt O14733); experiment: Binding affinity to wild-type human full length MKK7 (M1 to R419 residues) expressed in mammalian expression system assessed as residual binding level at 10 uM by Kinomescan method relative to control
# [17] = biological target: Mitogen-activated protein kinase 3 (Homo sapiens) (UniProt P27361); experiment: Binding affinity to wild-type human full length ERK1 (M1 to P379 residues) expressed in bacterial expression system assessed as residual binding level at 10 uM by Kinomescan method relative to control
# [18] = biological target: Serine/threonine-protein kinase RIO2 (Homo sapiens) (UniProt Q9BVS4); experiment: Binding affinity to wild-type human partial length RIOK2 (M1 to D313 residues) expressed in mammalian expression system assessed as residual binding level at 10 uM by Kinomescan method relative to control
# [19] = biological target: Calcium/calmodulin-dependent protein kinase type II subunit alpha (Homo sapiens) (UniProt Q9UQM7); experiment: Binding affinity to wild-type human partial length CAMK2A (M1 to K328 residues) expressed in bacterial expression system assessed as residual binding level at 10 uM by Kinomescan method relative to control
# [20] = biological target: Mitogen-activated protein kinase kinase kinase 11 (Homo sapiens) (UniProt Q16584); experiment: Binding affinity to wild-type human partial length MLK3 (I77 to W399 residues) expressed in bacterial expression system assessed as residual binding level at 10 uM by Kinomescan method relative to control
# [21] = biological target: Atypical kinase COQ8A, mitochondrial (Homo sapiens) (UniProt Q8NI60); experiment: Binding affinity to wild-type human full length ADCK3 (M280 to Q647 residues) expressed in bacterial expression system assessed as residual binding level at 10 uM by Kinomescan method relative to control
# [22] = biological target: Tyrosine-protein kinase HCK (Homo sapiens) (UniProt P08631); experiment: Binding affinity to wild-type human full length HCK (M22 to P526 residues) expressed in bacterial expression system assessed as residual binding level at 10 uM by Kinomescan method relative to control
# [23] = biological target: Tyrosine-protein kinase ABL1 (Homo sapiens) (UniProt P00519); experiment: Binding affinity to wild-type human non-phosphorylated ABL1 (S229 to K512 residues) expressed in mammalian expression system assessed as residual binding level at 10 uM by Kinomescan method relative to control
# [24] = biological target: Aurora kinase C (Homo sapiens) (UniProt Q9UQB9); experiment: Binding affinity to wild-type human full length AURKC (M1 to S275 residues) expressed in bacterial expression system assessed as residual binding level at 10 uM by Kinomescan method relative to control
# Sequence of Aurora kinase C (Homo sapiens) (Q9UQB9 whole entry, the tested form may be a part): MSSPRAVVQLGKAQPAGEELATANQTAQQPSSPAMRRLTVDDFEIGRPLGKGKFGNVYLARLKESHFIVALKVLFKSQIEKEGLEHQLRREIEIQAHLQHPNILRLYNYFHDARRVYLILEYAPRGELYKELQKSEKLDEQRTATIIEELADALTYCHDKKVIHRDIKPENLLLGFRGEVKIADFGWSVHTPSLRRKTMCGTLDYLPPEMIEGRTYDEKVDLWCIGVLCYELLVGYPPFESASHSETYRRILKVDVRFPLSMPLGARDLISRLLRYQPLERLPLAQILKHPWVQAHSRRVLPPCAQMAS
# Sequence of Mitogen-activated protein kinase 6 (Homo sapiens) (Q16659 whole entry, the tested form may be a part): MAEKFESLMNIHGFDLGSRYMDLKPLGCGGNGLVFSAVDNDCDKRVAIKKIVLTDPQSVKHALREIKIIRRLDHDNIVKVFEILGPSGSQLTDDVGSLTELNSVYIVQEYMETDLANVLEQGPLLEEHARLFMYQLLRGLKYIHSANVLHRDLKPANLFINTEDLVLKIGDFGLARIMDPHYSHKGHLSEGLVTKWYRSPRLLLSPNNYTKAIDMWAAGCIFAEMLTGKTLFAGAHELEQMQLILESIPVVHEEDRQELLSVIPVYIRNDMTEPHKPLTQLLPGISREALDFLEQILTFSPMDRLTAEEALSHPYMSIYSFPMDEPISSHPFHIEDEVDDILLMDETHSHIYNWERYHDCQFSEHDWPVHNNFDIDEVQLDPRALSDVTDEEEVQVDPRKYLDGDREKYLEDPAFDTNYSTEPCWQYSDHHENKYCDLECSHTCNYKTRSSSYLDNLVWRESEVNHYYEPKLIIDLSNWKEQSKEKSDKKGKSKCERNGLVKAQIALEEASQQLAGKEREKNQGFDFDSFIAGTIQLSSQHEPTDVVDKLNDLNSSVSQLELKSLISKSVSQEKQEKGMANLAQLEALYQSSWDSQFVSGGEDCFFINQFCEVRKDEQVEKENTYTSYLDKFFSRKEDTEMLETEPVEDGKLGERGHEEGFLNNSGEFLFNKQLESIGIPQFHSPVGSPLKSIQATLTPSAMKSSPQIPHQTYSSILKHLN
# Sequence of Serine/threonine-protein kinase D2 (Homo sapiens) (Q9BZL6 whole entry, the tested form may be a part): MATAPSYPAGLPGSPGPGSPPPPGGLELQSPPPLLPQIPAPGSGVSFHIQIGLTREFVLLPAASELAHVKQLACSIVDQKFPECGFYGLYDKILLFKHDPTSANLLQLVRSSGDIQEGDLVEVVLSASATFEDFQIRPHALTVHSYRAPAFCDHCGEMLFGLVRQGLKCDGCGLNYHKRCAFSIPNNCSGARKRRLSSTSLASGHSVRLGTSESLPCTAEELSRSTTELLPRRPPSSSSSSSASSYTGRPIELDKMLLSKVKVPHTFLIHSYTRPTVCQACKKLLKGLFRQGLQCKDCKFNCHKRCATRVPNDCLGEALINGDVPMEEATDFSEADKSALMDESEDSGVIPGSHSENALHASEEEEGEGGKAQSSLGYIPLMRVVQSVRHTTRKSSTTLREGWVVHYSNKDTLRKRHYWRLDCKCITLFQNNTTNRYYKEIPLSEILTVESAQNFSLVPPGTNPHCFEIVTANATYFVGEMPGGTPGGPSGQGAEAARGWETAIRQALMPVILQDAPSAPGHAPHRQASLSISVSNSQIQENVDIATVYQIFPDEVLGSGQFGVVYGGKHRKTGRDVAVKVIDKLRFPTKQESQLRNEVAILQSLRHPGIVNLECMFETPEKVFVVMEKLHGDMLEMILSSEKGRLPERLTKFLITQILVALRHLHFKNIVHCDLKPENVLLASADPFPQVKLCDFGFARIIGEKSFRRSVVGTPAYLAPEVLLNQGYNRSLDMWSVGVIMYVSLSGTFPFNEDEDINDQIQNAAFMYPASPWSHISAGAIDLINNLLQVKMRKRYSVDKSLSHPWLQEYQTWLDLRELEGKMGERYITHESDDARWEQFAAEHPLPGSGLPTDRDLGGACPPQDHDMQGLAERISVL
# Sequence of Tyrosine-protein kinase HCK (Homo sapiens) (P08631 2-526 limits assumed): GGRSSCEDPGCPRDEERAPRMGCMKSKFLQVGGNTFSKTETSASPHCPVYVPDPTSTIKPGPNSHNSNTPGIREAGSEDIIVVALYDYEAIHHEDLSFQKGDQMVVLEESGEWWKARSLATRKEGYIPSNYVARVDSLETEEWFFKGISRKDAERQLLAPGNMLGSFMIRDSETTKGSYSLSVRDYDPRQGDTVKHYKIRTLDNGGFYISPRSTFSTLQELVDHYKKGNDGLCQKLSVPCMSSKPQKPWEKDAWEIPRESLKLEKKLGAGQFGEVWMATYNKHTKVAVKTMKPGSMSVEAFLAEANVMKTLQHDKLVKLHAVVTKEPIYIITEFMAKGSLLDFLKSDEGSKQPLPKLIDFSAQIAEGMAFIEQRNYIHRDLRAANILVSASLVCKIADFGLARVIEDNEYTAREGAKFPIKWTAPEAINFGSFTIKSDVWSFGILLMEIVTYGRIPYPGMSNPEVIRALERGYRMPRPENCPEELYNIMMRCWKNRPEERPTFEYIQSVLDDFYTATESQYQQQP
# Sequence of Mitogen-activated protein kinase 1 (Homo sapiens) (P28482 whole entry, the tested form may be a part): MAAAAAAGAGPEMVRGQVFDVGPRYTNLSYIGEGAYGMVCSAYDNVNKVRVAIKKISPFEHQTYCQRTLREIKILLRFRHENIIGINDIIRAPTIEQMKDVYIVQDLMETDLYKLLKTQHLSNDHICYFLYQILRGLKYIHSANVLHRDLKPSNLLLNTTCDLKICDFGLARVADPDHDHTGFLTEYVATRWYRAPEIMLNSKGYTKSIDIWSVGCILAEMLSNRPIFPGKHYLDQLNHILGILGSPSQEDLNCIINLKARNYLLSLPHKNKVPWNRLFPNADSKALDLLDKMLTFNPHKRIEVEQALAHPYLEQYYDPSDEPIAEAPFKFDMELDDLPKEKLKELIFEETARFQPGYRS
# Sequence of Serine/threonine-protein kinase 35 (Homo sapiens) (Q8TDR2 whole entry, the tested form may be a part): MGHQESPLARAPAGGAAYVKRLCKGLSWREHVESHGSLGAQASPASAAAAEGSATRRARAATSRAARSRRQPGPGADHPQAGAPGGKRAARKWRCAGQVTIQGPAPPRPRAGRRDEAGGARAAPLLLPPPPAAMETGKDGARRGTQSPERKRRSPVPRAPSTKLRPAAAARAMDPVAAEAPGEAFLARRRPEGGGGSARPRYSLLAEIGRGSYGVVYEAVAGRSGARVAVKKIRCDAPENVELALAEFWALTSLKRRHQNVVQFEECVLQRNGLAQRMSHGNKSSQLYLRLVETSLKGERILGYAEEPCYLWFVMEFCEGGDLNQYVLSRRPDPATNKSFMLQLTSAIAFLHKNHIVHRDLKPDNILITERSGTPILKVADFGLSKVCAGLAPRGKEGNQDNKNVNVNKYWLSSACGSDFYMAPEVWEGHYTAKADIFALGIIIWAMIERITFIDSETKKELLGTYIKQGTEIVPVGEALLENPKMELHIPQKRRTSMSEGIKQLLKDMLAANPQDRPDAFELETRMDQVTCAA
# Sequence of Tyrosine-protein kinase ABL1 (Homo sapiens) (P00519 whole entry, the tested form may be a part): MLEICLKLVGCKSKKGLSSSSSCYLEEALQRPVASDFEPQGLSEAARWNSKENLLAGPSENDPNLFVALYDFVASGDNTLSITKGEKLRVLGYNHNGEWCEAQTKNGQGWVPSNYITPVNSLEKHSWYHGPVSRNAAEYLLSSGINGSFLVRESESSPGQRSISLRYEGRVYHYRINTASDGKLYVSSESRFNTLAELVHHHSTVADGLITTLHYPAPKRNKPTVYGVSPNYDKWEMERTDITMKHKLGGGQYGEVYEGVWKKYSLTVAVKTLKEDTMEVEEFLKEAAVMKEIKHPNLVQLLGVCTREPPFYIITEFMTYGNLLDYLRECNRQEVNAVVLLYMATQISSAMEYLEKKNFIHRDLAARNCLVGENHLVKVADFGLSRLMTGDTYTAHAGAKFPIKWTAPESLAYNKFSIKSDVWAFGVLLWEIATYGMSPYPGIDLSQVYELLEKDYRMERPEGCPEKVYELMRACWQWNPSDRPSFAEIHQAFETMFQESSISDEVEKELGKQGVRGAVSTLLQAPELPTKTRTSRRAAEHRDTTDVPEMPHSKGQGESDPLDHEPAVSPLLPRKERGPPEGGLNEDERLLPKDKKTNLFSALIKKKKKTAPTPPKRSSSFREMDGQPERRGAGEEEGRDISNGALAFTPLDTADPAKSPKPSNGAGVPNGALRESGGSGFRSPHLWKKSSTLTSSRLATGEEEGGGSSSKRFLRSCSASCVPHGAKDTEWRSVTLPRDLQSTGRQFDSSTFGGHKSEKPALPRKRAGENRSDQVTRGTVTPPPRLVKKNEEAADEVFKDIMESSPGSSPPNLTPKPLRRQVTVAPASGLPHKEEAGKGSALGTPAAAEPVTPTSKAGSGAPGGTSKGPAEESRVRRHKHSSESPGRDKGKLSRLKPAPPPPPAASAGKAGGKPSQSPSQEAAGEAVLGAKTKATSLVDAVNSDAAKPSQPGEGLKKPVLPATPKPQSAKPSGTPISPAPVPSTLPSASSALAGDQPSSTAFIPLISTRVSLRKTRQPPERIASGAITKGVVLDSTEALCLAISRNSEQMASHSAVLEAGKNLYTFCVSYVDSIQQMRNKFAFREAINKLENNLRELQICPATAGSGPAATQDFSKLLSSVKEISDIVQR
# Sequence of Calcium/calmodulin-dependent protein kinase type II subunit alpha (Homo sapiens) (Q9UQM7 whole entry, the tested form may be a part): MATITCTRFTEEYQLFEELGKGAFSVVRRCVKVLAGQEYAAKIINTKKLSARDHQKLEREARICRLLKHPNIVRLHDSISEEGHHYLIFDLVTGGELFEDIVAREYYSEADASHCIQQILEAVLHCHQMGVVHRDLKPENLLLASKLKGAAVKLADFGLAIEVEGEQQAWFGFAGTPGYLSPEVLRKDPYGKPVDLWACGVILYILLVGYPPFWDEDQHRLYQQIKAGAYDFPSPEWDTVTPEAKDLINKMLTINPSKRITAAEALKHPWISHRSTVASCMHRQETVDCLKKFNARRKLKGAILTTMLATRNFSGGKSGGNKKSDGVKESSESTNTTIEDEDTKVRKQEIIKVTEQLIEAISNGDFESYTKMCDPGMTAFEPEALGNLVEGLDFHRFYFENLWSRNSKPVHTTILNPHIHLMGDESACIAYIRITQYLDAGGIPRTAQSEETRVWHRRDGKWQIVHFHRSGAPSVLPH
compound,measurement,setting,value
CC(C)N1C(=O)C(NCCCN(C)C)=C(c2cn(C)c3ccccc23)C1=O.Cl,Activity,[1],74%
same,Activity,[2],95%
same,Activity,[3],100%
same,Activity,[4],100%
same,Activity,[5],97%
same,Activity,[6],100%
same,Activity,[7],100%
same,Activity,[8],100%
same,Activity,[9],81%
same,Activity,[10],100%
same,Activity,[11],100%
same,Activity,[12],100%
same,Activity,[13],93%
same,Activity,[14],100%
same,Activity,[15],100%
same,Activity,[16],88%
same,Activity,[17],87%
same,Activity,[18],91%
same,Activity,[19],100%
same,Activity,[20],91%
same,Activity,[21],91%
same,Activity,[22],100%
same,Activity,[23],84%
same,Activity,[24],92%
